Measurements published in PMC7725506, “Functional Diversification of SRSF Protein Kinase to Control Ubiquitin-Dependent Neurodevelopmental Signaling” (Developmental Cell, 2020).

Columns and labels:
[1] = target: SRPK1 (Homo sapiens, UniProt Q96SB4); format: biochemical; settings: in vitro, RNF12 phospho-Ser214 immunoblot quantified; read-out: IC50, inhibition of RNF12 phosphorylation by SRPK1
Experimental: (§1) Cells were lysed, and 1.5 mg of protein immunoprecipitated with 2 μg of SRPK1 or SRPK2 antibodies (BD Biosciences). Immunoprecipitates were then washed with lysis buffer supplemented with 500 mM NaCl and half of the sample was resuspended in loading buffer. The remainder was subjected to in vitro phosphorylation assay containing 0.5 μg RNF12 and 2 mM ATP in kinase buffer (50 mM Tris-HCl [pH 7.5], 0.1 mM EGTA, 10 mM MgCl2, 2 mM DTT) and incubated at 30°C for 30 min. […] For radioactive in vitro kinase assays, reactions were supplemented with 1 μCi γ-^32P ATP. Reactions were incubated at 30°C for 30 min in presence or absence of inhibitor as indicated and samples subjected to polyacrylamide electrophoresis and immunoblot or Coomassie blue staining and signal detected via ECL, infrared detection or autoradiography.
(§2) Supplemental Figure Legends
(§3) (Related to Figure 1). (A) Wild-type (WT) mESCs were analysed for protein copy number by absolute quantitative proteomics. […]
(§4) Data are represented as mean ± S.E.M. (n=3). […] ND = not detected. (B) Inhibition of RNF12 phosphorylation in vitro by SRPK1 and SRPK2 in the presence of varying concentrations of the indicated SRPK inhibitors was determined by immunoblotting for RNF12 phospho-Ser214 (Left). […] Immunoblots were quantified to generate SRPK inhibitor dose-response curves for inhibition of RNF12 phosphorylation by SRPK1 and SRPK2 in vitro (Right). […]

[2] = target: SRPK2 (Homo sapiens, UniProt P78362); assay: Inhibition of RNF12 phosphorylation in vitro by SRPK2 (phospho-Ser214 immunoblot, dose-response); format: biochemical; settings: only this inhibitor of SRPIN340, SPHINX31, SRPKIN-1
Experimental: as §1, §2, §3, §4

[3] = target: T1, SRPK1 (Mus musculus, UniProt O70551); assay: SRPK1 immunoprecipitation kinase assay from inhibitor-treated mESCs with RNF12 as substrate; format: cell-based; settings: mESCs pre-treated with 10 μM for 4 h
T1 construct: endogenous in cells; host or cells: mESCs (CCE line)
Experimental: SRSF phosphorylation, SRPK1, SRPK2, and ERK1/2 levels were determined by immunoblotting. Expected positions of SRSFs that are not detected are shown in gray. Quantification of SRSF phosphorylation (Right). Data represented as mean ± SEM (n = 4). […] Neuro 2a is a control for exon 16b exclusion in differentiated cells (Bottom). Data represented as mean ± SEM (n = 3). […] Exon 16 inclusion: (^∗∗∗∗) p < 0.0001, Exon 16b inclusion: (^∗) p = 0.0164, p = 0.0485, and p = 0.0489 (left to right). Ratio exon 16b/16: (^∗∗∗∗) p < 0.0001, (^∗∗∗) p = 0.0003. (C) SRPK substrates predicted using ScanProsite and grouped according to UniProt functions. (D) RNF12 phosphorylation sites detected by mass-spectrometry. LZL, leucine-zipper like; NLS, nuclear localization signal; NES, nuclear export signal; RING, RING E3 ubiquitin ligase catalytic domain. (E) CMGC family kinase copy numbers in mESCs determined by quantitative proteomics and represented using Kinoviewer. (F) CMGC kinase (200 mU) phosphorylation of the RNF12 SR-motif in vitro was determined by immunoblotting for RNF12 phospho-Ser214 and total RNF12. […] Normalized RNF12 Ser214 phosphorylation is shown below. Data represented as mean ± SEM (n = 3). […] RNF12 SR-motif phosphorylation was analyzed by immunoblotting for RNF12 phospho-Ser214 and RNF12. SRPK1 and SRPK2 levels are shown as a loading control, Related to Figure S1; Tables S1 and S2. […]

[4] = system: RNF12 SR-motif; assay: RNF12 SR-motif phosphorylation in mESCs by phos-tag immunoblotting; format: cell-based, mouse; settings: 4 h
Description: RNF12 4xSA = S212A/S214A/S227A/S229A. (B) Rlim^−^/y mESCs were transfected with the indicated RNF12 constructs and lysates treated with λ-phosphatase and analyzed by phos-tag immunoblotting for RNF12. Unphosphorylated recombinant RNF12 is included as a control. […] RNF12 4xSA is included as an unphosphorylated control. […] (F) Phosphorylated peptides detected by mass spectrometry following in vitro phosphorylation of RNF12 by SRPK1. pS, phospho-serine. (G) Autoradiography of RNF12 WT or S212A/S214A/S227A/S229A (4xSA) following a radioactive kinase reaction with SRPK1, SRPK2, or SRPK3. RNF12 protein is detected by Coomassie staining. (H) Srpk1^+/+ and Srpk1^−/− mESCs were transfected with control or SRPK2 siRNA and RNF12 SR-motif phosphorylation analyzed by phos-tag immunoblotting for RNF12. SRPK2, SRPK1, RNF12, and ERK1/2 levels were determined by immunoblotting. Related to Figure S2; Tables S3 and S4.
All compounds were diluted in DMSO and mESCs treated with 10 μM inhibitor for 4 h prior lysis unless indicated otherwise. […] For proteasome inhibition mESCs were treated with 10 μM MG132 (Sigma Aldrich) for 6 h. All chemicals are listed in the Key Resource Table.
Phos-tag analyses were performed by loading protein samples containing 10 mM MnCl2 in 8% polyacrylamide gels containing 50 μM Phos-tag reagent (MRC-PPU reagents and services) and 0.1 mM MnCl2. After electrophoresis, gels were washed three times for 10 mins in Transfer buffer (48 mM Tris, 39 mM Glycine, 20% Methanol) supplemented with 20 mM EDTA. Proteins were then transferred to Nitrocellulose membranes, blocked and probed with the indicated antibodies. All protein signals were quantified using Image Studio (LI-COR Biosciences) or Image Lab software (Bio-Rad). Primary antibodies are listed in the Key Resource Table. […]
SR-motif phosphorylation of HA-immunoprecipitated RNF12 analysed by phos-tag immunoblotting.
HA-RNF12 levels are shown as a control. Fully phosphorylated (4-P) and unphosphorylated (0-P) RNF12 SR-motif is indicated by open (○) and closed (●) circles respectively.
Data are represented as mean ± S.D. (n=3). (C) RNF12 expressing mESCs were treated with 10 […]
immunoblotting. HA-RNF12 and ERK1/2 levels are shown as a control. (D) RNF12 expressing […]
5 h (+ wash-out). RNF12 phosphorylation was analysed via phos-tag immunoblotting. ERK1/2 levels are shown as a loading control. (E) Multiple Srpk1-/- and Srpk2-/- mESC clones were […]

SRPK2, sequence (P78362 1-699 isoform P78362-2): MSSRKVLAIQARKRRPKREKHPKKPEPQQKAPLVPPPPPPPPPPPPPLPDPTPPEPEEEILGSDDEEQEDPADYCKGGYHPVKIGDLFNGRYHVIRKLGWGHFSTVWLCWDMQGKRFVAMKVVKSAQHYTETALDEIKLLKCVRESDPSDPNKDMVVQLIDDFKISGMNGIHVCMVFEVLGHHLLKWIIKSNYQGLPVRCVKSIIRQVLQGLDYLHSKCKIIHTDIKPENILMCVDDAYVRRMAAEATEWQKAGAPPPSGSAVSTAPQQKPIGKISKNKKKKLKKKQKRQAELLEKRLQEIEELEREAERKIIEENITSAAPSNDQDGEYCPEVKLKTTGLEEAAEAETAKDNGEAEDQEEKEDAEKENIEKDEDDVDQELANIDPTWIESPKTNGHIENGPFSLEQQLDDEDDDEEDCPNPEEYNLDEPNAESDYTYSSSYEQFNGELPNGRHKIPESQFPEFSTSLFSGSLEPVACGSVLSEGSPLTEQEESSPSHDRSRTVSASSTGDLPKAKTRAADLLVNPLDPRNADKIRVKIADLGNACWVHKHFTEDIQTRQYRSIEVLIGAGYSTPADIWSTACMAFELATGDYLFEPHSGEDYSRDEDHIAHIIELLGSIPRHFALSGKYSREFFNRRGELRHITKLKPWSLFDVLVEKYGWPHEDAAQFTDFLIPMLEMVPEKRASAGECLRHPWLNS
T1 sequence (O70551 whole entry): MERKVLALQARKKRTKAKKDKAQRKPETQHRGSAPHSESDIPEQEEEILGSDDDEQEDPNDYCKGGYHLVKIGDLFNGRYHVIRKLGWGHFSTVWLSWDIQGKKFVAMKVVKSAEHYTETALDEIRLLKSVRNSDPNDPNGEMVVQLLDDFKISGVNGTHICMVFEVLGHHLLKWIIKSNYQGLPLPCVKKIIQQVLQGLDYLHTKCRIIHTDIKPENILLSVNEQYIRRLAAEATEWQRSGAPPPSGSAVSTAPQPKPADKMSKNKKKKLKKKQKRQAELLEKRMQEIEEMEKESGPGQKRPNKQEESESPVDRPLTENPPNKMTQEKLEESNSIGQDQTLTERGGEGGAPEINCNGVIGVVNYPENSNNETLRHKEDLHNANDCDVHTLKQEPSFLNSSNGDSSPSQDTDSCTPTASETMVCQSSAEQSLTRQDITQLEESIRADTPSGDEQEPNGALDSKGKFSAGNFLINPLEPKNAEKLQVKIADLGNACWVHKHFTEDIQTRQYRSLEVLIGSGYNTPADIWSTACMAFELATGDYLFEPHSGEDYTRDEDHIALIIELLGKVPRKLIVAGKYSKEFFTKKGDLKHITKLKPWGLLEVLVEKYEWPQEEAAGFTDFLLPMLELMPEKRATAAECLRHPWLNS
SRPK1 (Homo sapiens, UniProt Q96SB4), sequence (Q96SB4 whole entry): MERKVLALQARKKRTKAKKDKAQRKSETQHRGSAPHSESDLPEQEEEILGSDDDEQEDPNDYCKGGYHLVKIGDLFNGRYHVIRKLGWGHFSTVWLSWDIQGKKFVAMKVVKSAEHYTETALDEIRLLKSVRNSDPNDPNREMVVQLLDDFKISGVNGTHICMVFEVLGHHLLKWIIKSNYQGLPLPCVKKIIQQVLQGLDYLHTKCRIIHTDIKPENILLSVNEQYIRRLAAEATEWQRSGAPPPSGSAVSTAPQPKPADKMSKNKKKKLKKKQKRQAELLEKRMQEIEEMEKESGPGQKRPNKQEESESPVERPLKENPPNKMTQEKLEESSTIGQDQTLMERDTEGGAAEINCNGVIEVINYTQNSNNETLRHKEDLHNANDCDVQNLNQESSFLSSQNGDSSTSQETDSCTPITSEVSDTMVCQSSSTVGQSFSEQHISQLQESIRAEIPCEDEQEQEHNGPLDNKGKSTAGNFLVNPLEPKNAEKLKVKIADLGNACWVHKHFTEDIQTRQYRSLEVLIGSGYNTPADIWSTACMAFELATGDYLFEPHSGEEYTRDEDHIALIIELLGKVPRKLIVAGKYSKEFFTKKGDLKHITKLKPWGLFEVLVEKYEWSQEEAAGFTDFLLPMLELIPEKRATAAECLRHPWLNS

With CCc1cc2c(cc1-c1cccc(S(=O)(=O)F)c1)C(C)(C)c1[nH]c3cc(C#N)ccc3c1C2=O [SRPKIN-1] the IC50 [1] was 15.2 nM, the “inhibition of SRPK2” value [2] was “potently inhibited” and the “inhibition of SRPK1 in vivo (ability of immunoprecipitates to phosphorylate RNF12)” value [3] was “potently inhibited”. The “Ser214 phosphorylation of the high-mobility form of RNF12” value ([4]; 10 μM, HA-RNF12 immunoprecipitates, phos-tag and phospho-Ser214 multiplex immunoblot) was “completely dephosphorylated” and the “concentration leading to RNF12 SR-motif de-phosphorylation (as low as)” value [4] was 1 µM.
